Paper PMC7926627, “Fine-Tuning the Biological Profile of Multitarget Mitochondriotropic Antioxidants for Neurodegenerative Diseases” (Antioxidants, 2021)
Where “and” joins values, the source holds several entries; their conditions need not be identical. Equal values may be shown once. Read-outs that look alike come from different tables or passages of the source. Marks after values point to notes of the source that are not given here.

What was measured:
hMAO-A [1] = target: T1, hMAO-A (Homo sapiens, UniProt P21397); assay: hMAO-A inhibition, kynuramine substrate; assay type: biochemical
T1 construct: purchased Sigma Aldrich; host or cells: insect cells (BTI-TN-5B1-4), baculovirus
T1 sequence (P21397 1-527): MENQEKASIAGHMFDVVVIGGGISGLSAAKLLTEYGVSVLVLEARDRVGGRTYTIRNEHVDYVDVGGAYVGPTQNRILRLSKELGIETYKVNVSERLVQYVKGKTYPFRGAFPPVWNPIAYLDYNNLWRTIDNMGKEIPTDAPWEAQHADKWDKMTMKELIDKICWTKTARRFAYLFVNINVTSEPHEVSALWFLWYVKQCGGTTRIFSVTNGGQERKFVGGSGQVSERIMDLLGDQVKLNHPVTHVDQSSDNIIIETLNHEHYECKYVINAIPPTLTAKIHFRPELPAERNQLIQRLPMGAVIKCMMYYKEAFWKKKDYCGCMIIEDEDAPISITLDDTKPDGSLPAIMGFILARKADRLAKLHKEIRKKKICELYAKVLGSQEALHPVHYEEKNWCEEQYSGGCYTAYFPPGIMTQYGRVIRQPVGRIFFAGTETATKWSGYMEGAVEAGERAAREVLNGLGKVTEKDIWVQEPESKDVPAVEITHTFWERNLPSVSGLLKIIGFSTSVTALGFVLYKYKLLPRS
Procedure: (§1) The inhibitory activity of lipophilic TPP^+ cations on hMAO-A and hMAO-B was studied using an experimental protocol described elsewhere [29, 40]
(§2) Evaluation of human monoamine oxidase (hMAO) inhibitory activity The human monoamine oxidase (hMAO) inhibitory outline was assessed in microsomal MAO isoforms prepared from insect cells (BTI-TN-5B1-4) infected with recombinant baculovirus containing cDNA inserts for hMAO-A or hMAO-B an d by measuring the enzymatic conversion rates of kynuramine into 4-hydroxyquinoline. The appropriate amounts of hMAO-A and hMAO-B were adjusted to obtain, in our experimental conditions, the same maximum
(§3) All assays were performed in sodium phosphate buffer solution 50 mM pH 7.4.
(§4) The compounds under study and reference inhibitors were pre-incubated at 37 °C for 10
(§5) concentration: 2×Km) in 96-well microplates (BRANDplates, pureGradeTM, BRAND GMBH, Wertheim, Germany). Then, the reaction was started with the addition of hMAO-A or hMAO-B.
(§6) Initial velocities were determined spectrophotometrically in a microplate reader (BioTek Synergy HT from BioTek Instruments, Winooski, VT, USA) at 37 °C by measuring the formation of 4-
(§7) The initial velocities, obtained from the linear phase of product formation, were normalized and plotted against the respective inhibitor concentration. IC50 values were obtained from dose-response curves and were expressed as mean ± standard deviation. IC50 values were determined from at least three independent experiments, each performed in triplicate.

[2] = Oxygen radical absorbance capacity (ORAC-FL) assay; settings: for ORAC-FL Index: relative Trolox equivalent ORAC value
[3] = test system: differentiated SH-SY5Y cells; assay: Resazurin reduction assay (cytotoxicity); assay type: cell-based, human; settings: 24 h, concentrations up to 100 µM
Procedure: For cytotoxicity studies, differentiated SH-SY5Y cells were incubated with increasing concentrations of the test compounds (0.20–100 µM) for 24 h. Controls were treated with culture media containing 0.1% DMSO. Cell viability was estimated using two different methods: resazurin reduction assay and NR uptake assay. […]
days. The cultures were passaged once a week by trypsinization (0.25 % trypsin/1 mM EDTA).
To avoid phenotypic changes, the cells used for all experiments were taken between 19th and 28th passages. Cells were differentiated as described previously by Fernandes et al.. Briefly, SH-SY5Y cells were seeded onto 96-well plates at a density of 25,000 cells/cm2 in cell culture medium with trans-retinoic acid (RA) (final concentration of 10 µM) and incubated for 3 days at 37 °C in a humidified, 5% CO2−95% air atmosphere. The cell culture medium was then removed and replaced with medium supplemented with 12-O-tetradecanoylphorbol-13-acetate (TPA) (final concentration 80 nM), and cells were incubated for 3 days. Stock solutions of RA (10 mM) and TPA (80 µM) were prepared in DMSO.
1.5.3. Cytotoxicity assays
1.5.3.1. Resazurin reduction assay
Resazurin is a non-fluorescent, non-toxic water-soluble dye able to permeate through cell […]
highly fluorescent resorufin [8, 9]. Since the conversion of resazurin into resorufin occurs mostly in mitochondria, the amount of resorufin produced can be used as indicator of metabolic activity. The quantity of resorufin production is proportional to the number of viable cells in culture and can be quantified fluorometrically or colorimetrically.
Resazurin reduction assay was performed as previously described by Fernandes et al..
Briefly, after the 24 h incubation periods with the test compounds, the cell culture medium was removed and replaced with fresh culture medium with resazurin (10 μg/mL) prepared in cell culture medium. Differentiated SH-SY5Y cells were incubated for 2 h at 37 °C in a humidified 5% CO2−95% air atmosphere. Then, the fluorescence was read in a multiwell microplate reader (PowerWave XS from BioTek Instruments, Vermont, US), using an excitation wavelength of 540 nm and an emission wavelength of 590 nm. The results were expressed as the percentage of resazurin reduction relative to that of the control (non-treated) cells [resazurin reduction (% of […]
1.5.3.2. Neutral red uptake assay
The neutral red (NR) uptake assay is based on the ability of viable cells to incorporate the supravital dye NR and retain it inside the lysosomes. NR uptake assay was performed as previously described by Fernandes et al. Briefly, after the 24 h incubation periods with the test compounds, the cell culture medium was removed and NR solution ([…]) in fresh cell culture medium was added. Differentiated SH-SY5Y cells and Caco-2 cells were incubated for 2 h and 1 h, respectively, at 37 °C in a humidified, 5% CO2−95% air atmosphere. Then, the cell culture medium was removed and replaced by ethanol absolute/distilled water (1:1) with 5 % acetic acid to liberate the dye from the viable cells. The absorbance was measured at 540 nm in a […]

[4] = test system: differentiated SH-SY5Y cells; assay: Neutral red (NR) uptake assay (cytotoxicity); assay type: cell-based, human; settings: 24 h, increasing concentrations up to 100 µM
Procedure: To avoid phenotypic changes, the cells used for all experiments were taken between 19th and 28th passages. Cells were differentiated as described previously by Fernandes et al. [6]. Briefly, SH-SY5Y cells were seeded onto 96-well plates at a density of 25,000 cells/cm2 in cell culture medium with trans-retinoic acid (RA) (final concentration of 10 µM) and incubated for 3 days at
The neutral red (NR) uptake assay is based on the ability of viable cells to incorporate the supravital dye NR and retain it inside the lysosomes [11]. NR uptake assay was performed as previously described by Fernandes et al. [12] Briefly, after the 24 h incubation periods with the test compounds, the cell culture medium was removed and NR solution (50 mg/mL) in fresh cell culture medium was added. Differentiated SH-SY5Y cells and Caco-2 cells were incubated for 2
multiwell microplate reader (PowerWave XS from BioTek Instruments). The results were
expressed as the percentage of NR uptake relative to that of the control (non-treated) cells [NR
uptake (% of control)] ± standard error mean (SEM) of at least three independent experiments.
Stock solutions of the test compounds (10 µM) were prepared in DMSO and diluted in

[5] = target: T2, eqBChE (equine butyrylcholinesterase) (Equus caballus, UniProt P81908); parameters: method as in Benfeito et al. [22]; settings: ref Benfeito et al. [22]; cited from earlier work
T2 construct: butyrylcholinesterase (eqBuChE, E.C. 3.1.1.8, from equine serum); purchased Sigma Aldrich; host or cells: equine serum

[6] = parameters: method as in Teixeira et al. [19],[20]; settings: ref Teixeira et al. [19],[20]; cited from earlier work
[7] = Chromatographic hydrophobicity index by gradient RP-HPLC at pH 2.3
Procedure: Chromatographic hydrophobicity indexes (CHIs) at pH 2.3 were determined using an experimental protocol described elsewhere [45, 46] and included in the supplementary information.
Evaluation of the chromatographic hydrophobicity index
Chromatographic hydrophobicity indexes (CHIs) values were determined using the
retention times (tR) of samples and a mixture of reference compounds. The data was acquired on
a Shimadzu high-performance liquid chromatograph SPD-M20A system (Shimadzu, Kyoto,
Japan) with a Luna C18 (2) column (Phenomenex, CA, USA) 150×4.6 mm, 5 µm. In CHI
determinations at pH 2.3, mobile phase A was aqueous solution of acetic acid 1 % (v/v) (pH 2.3),
and mobile phase B was acetonitrile. The following gradient program was applied: 1 mL/min
Calibration plots were obtained using a mixture of the following compounds:
paracetamol, theophylline, caffeine, benzimidazole, colchicine, carbamazepine, indole,
propiophenone, butyrophenone, valerophenone, and heptanophenone (Table S1, Figure S2).
hydrophobicity index (CHI) values were calculated as previously described [13, 14].

hMAO-B [8] = target: T3, hMAO-B (Homo sapiens, UniProt P27338); assay: biochemical; parameters: purchased Sigma Aldrich; host or cells: insect cells (BTI-TN-5B1-4), baculovirus
T3 sequence (P27338 1-520): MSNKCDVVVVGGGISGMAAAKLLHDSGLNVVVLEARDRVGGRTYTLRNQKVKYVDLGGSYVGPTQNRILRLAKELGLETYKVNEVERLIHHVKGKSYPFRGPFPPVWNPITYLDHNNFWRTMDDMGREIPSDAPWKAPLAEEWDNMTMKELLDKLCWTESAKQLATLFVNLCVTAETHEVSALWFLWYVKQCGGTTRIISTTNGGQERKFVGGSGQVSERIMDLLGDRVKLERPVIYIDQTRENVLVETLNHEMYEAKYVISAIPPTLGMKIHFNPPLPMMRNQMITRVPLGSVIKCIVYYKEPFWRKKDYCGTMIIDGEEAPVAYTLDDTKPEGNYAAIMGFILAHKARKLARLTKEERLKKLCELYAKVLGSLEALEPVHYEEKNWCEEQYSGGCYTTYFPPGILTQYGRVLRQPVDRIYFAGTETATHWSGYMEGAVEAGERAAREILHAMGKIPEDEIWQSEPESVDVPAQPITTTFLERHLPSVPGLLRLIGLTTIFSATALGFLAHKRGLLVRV
Procedure: as §1, §2, §3, §4, §5, §6, §7

[9] = target: T4, eeAChE (electric eel acetylcholinesterase) (Electrophorus electricus, UniProt O42275); assay: eeAChE inhibition, Ellman's method; assay type: biochemical
T4 construct: Eel acetylcholinesterase (eeAChE, E.C. 3.1.1.7, from Electrophorus electricus); purchased Sigma Aldrich
Procedure: (§8) The eeAChE and eqBChE inhibitory activities of the compounds under study were determined following the Ellman’s method [32, 33]
(§9) Substrate solutions (ATCI or BCTI) were prepared in deionized water (conductivity ˂ 0.1 µS.cm-
(§10) Evaluation of eel acetylcholinesterase and equine butyrylcholinesterase inhibitory
(§11) The eeAChE and eqBChE inhibitory activities of the compounds under study were evaluated following the Ellman’s method [1, 2]. Briefly, a mixture containing sodium phosphate buffer, enzyme (final concentration: eeAChE 0.05 U/mL and eeBChE 0.05 U/mL), DTNB (final concentration: 400 µM) and the test compounds/reference inhibitors were preincubated for 5 minutes at 30 °C in a 96-well microplate (BRANDplates, pureGradeTM, BRAND GMBH, Wertheim, Germany). In control experiments, sodium phosphate buffer was used instead of the
(§12) ºC in a microplate reader (BioTek Synergy HT from BioTek Instruments, Winooski, VT, USA).
(§13) The rates of the substrate enzymatic hydrolysis were determined, normalized and plotted against the respective inhibitor concentration. IC50 values were obtained from the dose-response curves
(§14) and were expressed as mean ± standard deviation. IC50 values were determined in at least three
(§15) independent experiments, each performed at least in triplicates.

[10] = target: T2, eqBChE (equine butyrylcholinesterase); assay: biochemical
Procedure: as §8, §9, §10, §11, §12, §13, §14, §15

[11] = parameters: method as in Camurri et al. [13]; settings: standard mixture for calibration; ref Camurri et al. [13]; cited from earlier work
hMAO-A [12] = target: T1, hMAO-A; parameters: method as in Chavarria et al. [29]; settings: read-out: IC50 hMAO-A; ref Chavarria et al. [29]; cited from earlier work
hMAO-B [13] = target: T3, hMAO-B; settings: read-out: IC50 hMAO-B; ref Chavarria et al. [29]; cited from earlier work
[14] = test system: differentiated SH-SY5Y cells; settings: at concentrations up to 50 µM; ref [58]; cited from earlier work

T2 sequence (P81908 whole entry): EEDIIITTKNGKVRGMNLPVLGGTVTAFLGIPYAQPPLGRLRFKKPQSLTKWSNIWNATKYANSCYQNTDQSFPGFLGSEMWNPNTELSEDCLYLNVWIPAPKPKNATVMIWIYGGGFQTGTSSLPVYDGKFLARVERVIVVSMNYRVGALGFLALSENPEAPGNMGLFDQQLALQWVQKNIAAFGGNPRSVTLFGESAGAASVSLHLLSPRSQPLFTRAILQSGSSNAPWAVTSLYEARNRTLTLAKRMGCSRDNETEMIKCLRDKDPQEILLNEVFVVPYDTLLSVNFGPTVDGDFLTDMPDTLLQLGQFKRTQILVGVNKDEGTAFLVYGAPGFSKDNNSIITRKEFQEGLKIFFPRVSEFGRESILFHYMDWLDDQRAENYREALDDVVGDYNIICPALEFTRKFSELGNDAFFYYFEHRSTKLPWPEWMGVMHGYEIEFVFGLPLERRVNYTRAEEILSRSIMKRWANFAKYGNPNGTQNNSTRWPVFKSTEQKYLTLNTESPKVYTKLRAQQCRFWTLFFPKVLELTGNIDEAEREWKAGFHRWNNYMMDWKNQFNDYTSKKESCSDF
T4 sequence (O42275 24-633): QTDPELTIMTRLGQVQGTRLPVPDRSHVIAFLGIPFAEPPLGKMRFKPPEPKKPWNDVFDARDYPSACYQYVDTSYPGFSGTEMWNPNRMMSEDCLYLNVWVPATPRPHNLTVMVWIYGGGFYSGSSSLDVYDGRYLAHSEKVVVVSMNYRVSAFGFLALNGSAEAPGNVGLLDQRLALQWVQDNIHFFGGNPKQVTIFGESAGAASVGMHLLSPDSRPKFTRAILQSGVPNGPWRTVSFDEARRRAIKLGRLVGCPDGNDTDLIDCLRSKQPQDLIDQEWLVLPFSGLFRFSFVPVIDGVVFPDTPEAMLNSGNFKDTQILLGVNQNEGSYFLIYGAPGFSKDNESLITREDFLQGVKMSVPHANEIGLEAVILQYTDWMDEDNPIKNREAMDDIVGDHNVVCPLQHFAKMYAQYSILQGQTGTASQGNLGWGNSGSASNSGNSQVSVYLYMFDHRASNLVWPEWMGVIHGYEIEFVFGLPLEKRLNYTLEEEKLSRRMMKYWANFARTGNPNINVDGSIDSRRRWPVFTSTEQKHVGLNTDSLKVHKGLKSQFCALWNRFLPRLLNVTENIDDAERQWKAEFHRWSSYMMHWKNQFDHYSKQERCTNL

O=C(/C=C/c1ccc(O)c(O)c1)NCCCCCC[P+](c1ccccc1)(c1ccccc1)c1ccccc1 [AntiOXCIN2, reference compound]
IC50 (hMAO-A [1]): > 10 µM | inhibition at 10 µM (hMAO-A [1]): < 50% | ORAC-FL Index [2]: 2.8 ± 0.1 | effect on resazurin reduction [3]: did not markedly affect | effect on NR uptake [4]: did not markedly affect | IC50 [5]: 0.124 ± 0.007 µM | SI (1): eqBChE selectivity index = IC50(eeAChE)/IC50(eqBChE) [5]: 51 ^d | Ep (redox potential) [6]: 166 mV and 166 ^a mV | CHI [7]: 37.9 | IC50 (hMAO-B [8]): > 10 µM | inhibition at 10 µM (hMAO-B [8]): < 50%

O=C(/C=C/c1ccc(O)c(O)c1)NCCCCCCCC[P+](c1ccccc1)(c1ccccc1)c1ccccc1 [AntiOXCIN3, reference compound]
IC50 [9]: 5.08 ± 0.22 µM | SI (1): eqBChE selectivity index = IC50(eeAChE)/IC50(eqBChE) [10]: 16 | IC50 ([10]; read-out: IC50 eqBChE): 0.325 ± 0.09 µM | IC50 (hMAO-A [1]): > 10 µM | inhibition at 10 µM (hMAO-A [1]): < 50% | ORAC-FL Index [2]: 2.6 ± 0.1 | effect on resazurin reduction [3]: did not markedly affect | effect on NR uptake [4]: did not markedly affect | Ep (redox potential) [6]: 164 mV and 164 ^a mV | CHI [7]: 41.4 | IC50 (hMAO-B [8]): > 10 µM | inhibition at 10 µM (hMAO-B [8]): < 50%

c1ccc2[nH]cnc2c1 [Benzimidazole]
CHI0 pH 2.3 [11]: 6.30

CCCC(=O)c1ccccc1 [Butyrophenone]
CHI0 pH 2.3 [11]: 87.3

Cn1c(=O)c2c(ncn2C)n(C)c1=O [Caffeine]
CHI0 pH 2.3 [11]: 23.41

NC(=O)N1c2ccccc2C=Cc2ccccc21 [Carbamazepine]
CHI0 pH 2.3 [11]: 60.42

COc1cc2c(c(OC)c1OC)-c1ccc(OC)c(=O)cc1[C@@H](NC(C)=O)CC2 [Colchicine]
CHI0 pH 2.3 [11]: 43.9

O=C(C=CC=Cc1ccc2c(c1)OCO2)N1CCCCC1 [Compound 1, 1-[5-(1,3-benzodioxol-5-yl)-1-oxo-2,4-pentadienyl]piperidine]
ROO• radical scavenging ([2]; ORAC-FL): unable to scavenge ROO• radicals | IC50 (hMAO-A [12]): > 10 µM | IC50 (hMAO-B [13]): 1.05 ± 0.08 µM | cytotoxic effects [14]: did not exhibit cytotoxic effects | CHI [7]: 73.4

CCCCCCC(=O)c1ccccc1 [Heptanophenone]
CHI0 pH 2.3 [11]: 112.1

c1ccc2[nH]ccc2c1 [Indole]
CHI0 pH 2.3 [11]: 72.1

CC(=O)Nc1ccc(O)cc1 [Paracetamol]
CHI0 pH 2.3 [11]: 18.77

CCC(=O)c1ccccc1 [Propiophenone]
CHI0 pH 2.3 [11]: 77.4

Cn1c(=O)c2[nH]cnc2n(C)c1=O [Theophyline]
CHI0 pH 2.3 [11]: 17.9

CCCCC(=O)c1ccccc1 [Valerophenone]
CHI0 pH 2.3 [11]: 96.4
